# Read-outs that look alike come from different tables or passages of the source.
# Key:
# [1] = diffusion of drug through egg shell membrane in diffusion cell; assay type: in vitro ADME
# Procedure: A diffusion cell was partitioned by an egg shell membrane. […] While maintaining a temperature of 37° C., the two liquid phases were stirred, and after a lapse of a predetermined period of time, the amount of the drug which diffused into the acceptor side from the donor side was measured.
# The diffusion cell used was a glass cell for use in an ordinary diffusion experiment. The egg shell was obtained by removing the contents of an egg from the shell, immersing the shell in 0.7% acetic acid for 30 minutes, subjecting it to ultrasonication for 15 minutes, and carefully peeling the membrane from the shell.
# A control test was carried out in the same way as above except that only the drug was added to the donor side.
# The amount of the drug which diffused to the acceptor side was measured 30 minutes later, and compared with the control.
# The relative amount of the drug diffused from the drug-penetration enhancer system was calculated by taking the amount of the drug diffused from the control donor side as 100. […] Bull., Vol. 20, p.
# [2] = tested on: eye (cornea, iris, conjunctiva); assay: primary eye irritation (Draize) in rabbits; assay type: in vivo, white native male rabbits; conditions: 2.4% soln, average of three rabbits
# Procedure: enhancers of this invention shown in Table 17 was applied dropwise to one eye of white native male rabbits (body weight 2.0 to 3.0 kg; 3 per group) which, it had been ascertained, were free from any trouble at the cornea, iris and conjunctiva. Nothing was applied to the other eye. Thus, irritation of the absorption aid to the mucous membrane of the eyes were examined, and scores were calculated in accordance with the Draize's eye irritation evaluating method [Association of Foods, "Drugs and Cosmetics" (1957)].
# As a control, sodium laurylsulfate, a kind of surface-active agent, was evaluated in the same way, and the results are also shown in Table 17.
# carrageenan edema = carrageenan edema inhibiting effect of betamethasone valerate ointments; assay type: in vivo, rat; conditions: Table 5, betamethasone valerate ointment with penetration enhancer
# Procedure: An ointment was prepared from 0.15 part by weight of betamethasone valerate, 9.85 parts by weight of compound (168) and 90 parts by weight of the hydrophilic ointment.
# In accordance with the method of R. Passarella et al. [Argneim. Forsch 30, (I), Nr. 4, 647-651 (1980)], the carrageenan edema inhibiting effect of the above ointment was examined. Specifically, 0.1 ml of a 1% carrageenan suspension in 0.9% NaCl solution was injected into the tip of the right leg of a rat (body weight 150-175 g). The foot volume was measured immediately after administration of carrageenan and 3, 5, and 6 hours after the administration by means of a mercury displacement device. 0.5, 1 and 2 hours after the administration of carrageenan, 100 mg of the ointment was well […] into each of the sites which underwent inflammation.
# Various ointments were prepared from 0.15 part by weight of betamethasone valerate, […] of the various penetration enhancers shown in Table 5, and 85 parts by weight of the hydrophilic ointment, and tested in the same way as in Example 23.
# [3] = 30 minutes, drug 0.05% with compound (168) 1.0% on donor side, drug alone = 100, 37° C.
smiles,measurement,setting,value
"C=C1/C(=C\C=C2/CCC[C@]3(C)[C@@H]([C@H](C)CCCC(C)(C)O)CC[C@@H]23)C[C@@H](O)C[C@@H]1O [1,25-Dihydroxyvitamin D3]",Relative amount of the drug diffused,[1],123
O=c1[nH]cc(F)c(=O)[nH]1 [5-Fluorouracil],Relative amount of the drug diffused,[1]; [3],208
Cc1ccc(Cl)c(OCC(O)CNC(C)(C)C)c1 (stereo not shown) [Bupranolol],Relative amount of the drug diffused,[1],141
CC(=O)OCC1=C(C(=O)O)N2C(=O)[C@@H](NC(=O)Cc3cccs3)[C@H]2SC1 [Cephalothin],Relative amount of the drug diffused,[1]; [3],139
CN(C)CCCN1c2ccccc2Sc2ccc(Cl)cc21 [Chlorpromazine],Relative amount of the drug diffused,[1]; [3],133
"CCC=CCCCCCCCCOCC(O)COC(=O)[C@@H]1CCC(=O)N1 (stereo partly shown) [Compound (134), 3-(9-dodecenyloxy)-2-hydroxy-1-pyroglutamyloxypropane]","Primary irritation score, Conjunctiva",[2]; 1 hour,3.3
same,"Primary irritation score, Cornea",[2]; 1 hour,0
same,"Primary irritation score, Iris",[2]; 1 hour,0
same,"Primary irritation score, Total",[2]; 1 hour,3.3
same,"Primary irritation score, Conjunctiva",[2]; 3 hours,1.3
same,"Primary irritation score, Cornea",[2]; 3 hours,0
same,"Primary irritation score, Iris",[2]; 3 hours,0
same,"Primary irritation score, Total",[2]; 3 hours,1.3
same,"Primary irritation score, Conjunctiva",[2]; 6 hours,1.3
same,"Primary irritation score, Cornea",[2]; 6 hours,0
same,"Primary irritation score, Iris",[2]; 6 hours,0
same,"Primary irritation score, Total",[2]; 6 hours,1.3
same,"Primary irritation score, Conjunctiva",[2]; 24 hours,0
same,"Primary irritation score, Cornea",[2]; 24 hours,0
same,"Primary irritation score, Iris",[2]; 24 hours,0
same,"Primary irritation score, Total",[2]; 24 hours,0
same,"Primary irritation score, Conjunctiva",[2]; 48 hours,0
same,"Primary irritation score, Cornea",[2]; 48 hours,0
same,"Primary irritation score, Iris",[2]; 48 hours,0
same,"Primary irritation score, Total",[2]; 48 hours,0
same,"Primary irritation score, Conjunctiva",[2]; 72 hours,0
same,"Primary irritation score, Cornea",[2]; 72 hours,0
same,"Primary irritation score, Iris",[2]; 72 hours,0
same,"Primary irritation score, Total",[2]; 72 hours,0
same,"Primary irritation score, Conjunctiva",[2]; 96 hours,0
same,"Primary irritation score, Cornea",[2]; 96 hours,0
same,"Primary irritation score, Iris",[2]; 96 hours,0
same,"Primary irritation score, Total",[2]; 96 hours,0
same,"Primary irritation score, Conjunctiva",[2]; 168 hours,0
same,"Primary irritation score, Cornea",[2]; 168 hours,0
same,"Primary irritation score, Iris",[2]; 168 hours,0
same,"Primary irritation score, Total",[2]; 168 hours,0
same,Percentage inhibition vs. control,carrageenan edema; 3 hrs,16.4%
same,Percentage inhibition vs. control,carrageenan edema; 5 hrs,30.3%
same,Percentage inhibition vs. control,carrageenan edema; 6 hrs,34.2%
"CCCCCCCC(=O)OCC(COC(=O)[C@@H]1CCC(=O)N1)OC(=O)CCCCCCC (stereo partly shown) [Compound (162), 2,3-dioctanoyloxy-1-pyroglutamyloxypropane]","Primary irritation score, Conjunctiva",[2]; 1 hour,3.3
same,"Primary irritation score, Cornea",[2]; 1 hour,0
same,"Primary irritation score, Iris",[2]; 1 hour,0
same,"Primary irritation score, Total",[2]; 1 hour,3.3
same,"Primary irritation score, Conjunctiva",[2]; 3 hours,2.0
same,"Primary irritation score, Cornea",[2]; 3 hours,0
same,"Primary irritation score, Iris",[2]; 3 hours,0
same,"Primary irritation score, Total",[2]; 3 hours,2.0
same,"Primary irritation score, Conjunctiva",[2]; 6 hours,2.0
same,"Primary irritation score, Cornea",[2]; 6 hours,0
same,"Primary irritation score, Iris",[2]; 6 hours,0
same,"Primary irritation score, Total",[2]; 6 hours,2.0
same,"Primary irritation score, Conjunctiva",[2]; 24 hours,0
same,"Primary irritation score, Cornea",[2]; 24 hours,0
same,"Primary irritation score, Iris",[2]; 24 hours,0
same,"Primary irritation score, Total",[2]; 24 hours,0
same,"Primary irritation score, Conjunctiva",[2]; 48 hours,0
same,"Primary irritation score, Cornea",[2]; 48 hours,0
same,"Primary irritation score, Iris",[2]; 48 hours,0
same,"Primary irritation score, Total",[2]; 48 hours,0
same,"Primary irritation score, Conjunctiva",[2]; 72 hours,0
same,"Primary irritation score, Cornea",[2]; 72 hours,0
same,"Primary irritation score, Iris",[2]; 72 hours,0
same,"Primary irritation score, Total",[2]; 72 hours,0
same,"Primary irritation score, Conjunctiva",[2]; 96 hours,0
same,"Primary irritation score, Cornea",[2]; 96 hours,0
same,"Primary irritation score, Iris",[2]; 96 hours,0
same,"Primary irritation score, Total",[2]; 96 hours,0
same,"Primary irritation score, Conjunctiva",[2]; 168 hours,0
same,"Primary irritation score, Cornea",[2]; 168 hours,0
same,"Primary irritation score, Iris",[2]; 168 hours,0
same,"Primary irritation score, Total",[2]; 168 hours,0
same,Percentage inhibition vs. control,carrageenan edema; 3 hrs,16.1%
same,Percentage inhibition vs. control,carrageenan edema; 5 hrs,34.0%
same,Percentage inhibition vs. control,carrageenan edema; 6 hrs,34.2%
"CCCCCCCCCCCC(=O)OCC(O)COC(=O)[C@@H]1CCC(=O)N1 (stereo partly shown) [Compound (172), 3-dodecanoyloxy-2-hydroxy-1-pyroglutamyloxypropane]","Primary irritation score, Conjunctiva",[2]; 1 hour,3.3
same,"Primary irritation score, Cornea",[2]; 1 hour,0
same,"Primary irritation score, Iris",[2]; 1 hour,0
same,"Primary irritation score, Total",[2]; 1 hour,3.3
same,"Primary irritation score, Conjunctiva",[2]; 3 hours,2.0
same,"Primary irritation score, Cornea",[2]; 3 hours,0
same,"Primary irritation score, Iris",[2]; 3 hours,0
same,"Primary irritation score, Total",[2]; 3 hours,2.0
same,"Primary irritation score, Conjunctiva",[2]; 6 hours,1.3
same,"Primary irritation score, Cornea",[2]; 6 hours,0
same,"Primary irritation score, Iris",[2]; 6 hours,0
same,"Primary irritation score, Total",[2]; 6 hours,1.3
same,"Primary irritation score, Conjunctiva",[2]; 24 hours,0
same,"Primary irritation score, Cornea",[2]; 24 hours,0
same,"Primary irritation score, Iris",[2]; 24 hours,0
same,"Primary irritation score, Total",[2]; 24 hours,0
same,"Primary irritation score, Conjunctiva",[2]; 48 hours,0
same,"Primary irritation score, Cornea",[2]; 48 hours,0
same,"Primary irritation score, Iris",[2]; 48 hours,0
same,"Primary irritation score, Total",[2]; 48 hours,0
same,"Primary irritation score, Conjunctiva",[2]; 72 hours,0
same,"Primary irritation score, Cornea",[2]; 72 hours,0
same,"Primary irritation score, Iris",[2]; 72 hours,0
same,"Primary irritation score, Total",[2]; 72 hours,0
same,"Primary irritation score, Conjunctiva",[2]; 96 hours,0
same,"Primary irritation score, Cornea",[2]; 96 hours,0
same,"Primary irritation score, Iris",[2]; 96 hours,0
same,"Primary irritation score, Total",[2]; 96 hours,0
same,"Primary irritation score, Conjunctiva",[2]; 168 hours,0
same,"Primary irritation score, Cornea",[2]; 168 hours,0
same,"Primary irritation score, Iris",[2]; 168 hours,0
same,"Primary irritation score, Total",[2]; 168 hours,0
same,Percentage inhibition vs. control,carrageenan edema; 3 hrs,18.1%
same,Percentage inhibition vs. control,carrageenan edema; 5 hrs,37.2%
same,Percentage inhibition vs. control,carrageenan edema; 6 hrs,35.5%
"CCCCCCCCC1(CCCCCCCC)OCC(COC(=O)C2CCC(=O)N2)O1 (stereo not shown) [Compound (214), 2,3-dioxo-(dioctyl)methylene-1-pyroglutamyloxypropane]","Primary irritation score, Conjunctiva",[2]; 1 hour,2.0
same,"Primary irritation score, Cornea",[2]; 1 hour,0
same,"Primary irritation score, Iris",[2]; 1 hour,0
same,"Primary irritation score, Total",[2]; 1 hour,2.0
same,"Primary irritation score, Conjunctiva",[2]; 3 hours,2.0
same,"Primary irritation score, Cornea",[2]; 3 hours,0
same,"Primary irritation score, Iris",[2]; 3 hours,0
same,"Primary irritation score, Total",[2]; 3 hours,2.0
same,"Primary irritation score, Conjunctiva",[2]; 6 hours,2.0
same,"Primary irritation score, Cornea",[2]; 6 hours,0
same,"Primary irritation score, Iris",[2]; 6 hours,0
same,"Primary irritation score, Total",[2]; 6 hours,2.0
same,"Primary irritation score, Conjunctiva",[2]; 24 hours,0
same,"Primary irritation score, Cornea",[2]; 24 hours,0
same,"Primary irritation score, Iris",[2]; 24 hours,0
same,"Primary irritation score, Total",[2]; 24 hours,0
same,"Primary irritation score, Conjunctiva",[2]; 48 hours,0
same,"Primary irritation score, Cornea",[2]; 48 hours,0
same,"Primary irritation score, Iris",[2]; 48 hours,0
same,"Primary irritation score, Total",[2]; 48 hours,0
same,"Primary irritation score, Conjunctiva",[2]; 72 hours,0
same,"Primary irritation score, Cornea",[2]; 72 hours,0
same,"Primary irritation score, Iris",[2]; 72 hours,0
same,"Primary irritation score, Total",[2]; 72 hours,0
same,"Primary irritation score, Conjunctiva",[2]; 96 hours,0
same,"Primary irritation score, Cornea",[2]; 96 hours,0
same,"Primary irritation score, Iris",[2]; 96 hours,0
same,"Primary irritation score, Total",[2]; 96 hours,0
same,"Primary irritation score, Conjunctiva",[2]; 168 hours,0
same,"Primary irritation score, Cornea",[2]; 168 hours,0
same,"Primary irritation score, Iris",[2]; 168 hours,0
same,"Primary irritation score, Total",[2]; 168 hours,0
same,Percentage inhibition vs. control,carrageenan edema; 3 hrs,18.2%
same,Percentage inhibition vs. control,carrageenan edema; 5 hrs,35.3%
same,Percentage inhibition vs. control,carrageenan edema; 6 hrs,35.5%
CN1C(=O)CN=C(c2ccccc2)c2cc(Cl)ccc21 [Diazepam],Relative amount of the drug diffused,[1]; [3],144
C[C@]12CC[C@@H]3c4ccc(O)cc4CC[C@H]3[C@@H]1CC[C@@H]2O [Estradiol],Relative amount of the drug diffused,[1],181
COC1=CC(=O)C[C@@H](C)[C@]12Oc1c(Cl)c(OC)cc(OC)c1C2=O [Griseofulvin],Relative amount of the drug diffused,[1],209
COc1ccc2c(c1)c(CC(=O)O)c(C)n2C(=O)c1ccc(Cl)cc1 [Indomethacin],Relative amount of the drug diffused,[1]; [3],217
C[C@](N)(Cc1ccc(O)c(O)c1)C(=O)O [Methyldopa],Relative amount of the drug diffused,[1]; [3],137
CN1C(C(=O)Nc2ccccn2)=C(O)c2ccccc2S1(=O)=O [Piroxicam],Relative amount of the drug diffused,[1],177
